Usually EC50 stands for the concentration that produces a half-maximal response. Lower therefore signals an effect from little substance. A word on the IC50: it is the concentration at which inhibition is half-maximal.

Structures are written as SMILES. Read-outs that look alike come from different tables or passages of the source. Where a SMILES comes first, the peptide text is derived from it. [ ]: non-standard residue; d: D form. Phe(4-NH2) = Nc1ccc(C[C@H](N)C(=O)O)cc1 Some results are limits rather than exact numbers.

Data set [1] concerns human wild-type p21 promoter. Put plainly: p21 promoter-inducing activity (luciferase) in MFLL-9 cells. The format is cell-based. To be noted: Table 1; MFLL-9 cells, 18 hours; concentration corresponding to 50% of the maximum active value for TSA. On the procedure: The HDAC inhibitory activity in vivo was measured using p21 promoter-inducing activity as an index, as shown below. The MFLL-9 cells employed for the experiments stably maintained fusion genes of human wild-type p21 promoter and luciferase (Dr. B. Vogelstaein). Using phenol red-free DMEM medium comprising 10% FBS, cultivation was carried out in a steam-saturated incubator at 37° C. with 5% carbon dioxide. The MFLL-9 cells were plated at a density of 85,000 cells/well on a 96-well microtiter plate, each in 99 μl of the above-mentioned medium. These were then cultivated for six hours. One μl of test compound solution was added to each well, which was then cultured for another 18 hours.
The intensity of luminescence caused by the product of the enzyme reaction for intracellular luciferase expression was measured using Luc Lite (Packard BioScience Company).
HDAC inhibitory activity in an in vivo system was measured using p21 promoter induction as index. The experimental method followed that of Example 11.

The target of data set [2] is T1, mouse HDAC6 (Mus musculus, UniProt Q9Z2V5).
T1 construct: HA; made in house; host or cells: 293T cells, transient transfection; anti-HA immunoprecipitation and HA peptide elution
T1 sequence (Q9Z2V5 1-1149): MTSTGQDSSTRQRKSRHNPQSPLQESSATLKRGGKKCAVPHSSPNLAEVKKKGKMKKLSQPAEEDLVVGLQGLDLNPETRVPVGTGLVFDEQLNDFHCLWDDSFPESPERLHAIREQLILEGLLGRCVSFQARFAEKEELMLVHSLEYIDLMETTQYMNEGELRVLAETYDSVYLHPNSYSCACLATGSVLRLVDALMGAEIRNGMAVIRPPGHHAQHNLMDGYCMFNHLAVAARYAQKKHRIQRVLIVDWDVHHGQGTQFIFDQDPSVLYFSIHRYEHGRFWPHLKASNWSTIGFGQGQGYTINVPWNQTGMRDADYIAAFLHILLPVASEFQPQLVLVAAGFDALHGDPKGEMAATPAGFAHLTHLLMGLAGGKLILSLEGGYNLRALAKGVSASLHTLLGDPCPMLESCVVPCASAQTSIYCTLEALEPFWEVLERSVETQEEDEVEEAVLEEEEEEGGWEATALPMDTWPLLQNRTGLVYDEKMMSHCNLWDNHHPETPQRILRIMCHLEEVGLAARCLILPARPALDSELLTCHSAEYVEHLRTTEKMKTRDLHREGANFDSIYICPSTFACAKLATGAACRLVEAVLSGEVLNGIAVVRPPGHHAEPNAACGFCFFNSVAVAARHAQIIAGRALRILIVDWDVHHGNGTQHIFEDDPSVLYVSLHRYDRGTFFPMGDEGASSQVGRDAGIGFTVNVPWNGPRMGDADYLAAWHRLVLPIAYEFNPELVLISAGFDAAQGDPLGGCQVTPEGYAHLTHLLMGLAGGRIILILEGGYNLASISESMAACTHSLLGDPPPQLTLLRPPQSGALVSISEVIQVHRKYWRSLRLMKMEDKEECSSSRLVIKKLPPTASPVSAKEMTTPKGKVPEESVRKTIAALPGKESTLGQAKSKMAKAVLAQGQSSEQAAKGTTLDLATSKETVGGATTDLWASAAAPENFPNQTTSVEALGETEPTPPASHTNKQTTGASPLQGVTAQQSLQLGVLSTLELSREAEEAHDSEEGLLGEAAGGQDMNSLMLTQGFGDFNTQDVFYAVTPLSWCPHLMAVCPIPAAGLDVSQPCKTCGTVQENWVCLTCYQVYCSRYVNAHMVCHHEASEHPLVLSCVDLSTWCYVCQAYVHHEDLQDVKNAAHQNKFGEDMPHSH
Put plainly: HDAC inhibitory activity in vitro (coumarin-labeled acetylated histone peptide), HDAC6. Format: biochemical.

In data set [3] the test system is human uterine cancer cells (HeLa). The data set is described as follows: Cytotoxicity test (XTT), HeLa. The format is cell-based. To be noted: 48 hours.
For data set [4], the target named is T2, human HDAC4 (Homo sapiens, UniProt P56524).
T2 construct: FLAG; made in house; host or cells: 293T cells, transient transfection; anti-FLAG immunoprecipitation and FLAG peptide elution
T2 sequence (P56524 whole entry): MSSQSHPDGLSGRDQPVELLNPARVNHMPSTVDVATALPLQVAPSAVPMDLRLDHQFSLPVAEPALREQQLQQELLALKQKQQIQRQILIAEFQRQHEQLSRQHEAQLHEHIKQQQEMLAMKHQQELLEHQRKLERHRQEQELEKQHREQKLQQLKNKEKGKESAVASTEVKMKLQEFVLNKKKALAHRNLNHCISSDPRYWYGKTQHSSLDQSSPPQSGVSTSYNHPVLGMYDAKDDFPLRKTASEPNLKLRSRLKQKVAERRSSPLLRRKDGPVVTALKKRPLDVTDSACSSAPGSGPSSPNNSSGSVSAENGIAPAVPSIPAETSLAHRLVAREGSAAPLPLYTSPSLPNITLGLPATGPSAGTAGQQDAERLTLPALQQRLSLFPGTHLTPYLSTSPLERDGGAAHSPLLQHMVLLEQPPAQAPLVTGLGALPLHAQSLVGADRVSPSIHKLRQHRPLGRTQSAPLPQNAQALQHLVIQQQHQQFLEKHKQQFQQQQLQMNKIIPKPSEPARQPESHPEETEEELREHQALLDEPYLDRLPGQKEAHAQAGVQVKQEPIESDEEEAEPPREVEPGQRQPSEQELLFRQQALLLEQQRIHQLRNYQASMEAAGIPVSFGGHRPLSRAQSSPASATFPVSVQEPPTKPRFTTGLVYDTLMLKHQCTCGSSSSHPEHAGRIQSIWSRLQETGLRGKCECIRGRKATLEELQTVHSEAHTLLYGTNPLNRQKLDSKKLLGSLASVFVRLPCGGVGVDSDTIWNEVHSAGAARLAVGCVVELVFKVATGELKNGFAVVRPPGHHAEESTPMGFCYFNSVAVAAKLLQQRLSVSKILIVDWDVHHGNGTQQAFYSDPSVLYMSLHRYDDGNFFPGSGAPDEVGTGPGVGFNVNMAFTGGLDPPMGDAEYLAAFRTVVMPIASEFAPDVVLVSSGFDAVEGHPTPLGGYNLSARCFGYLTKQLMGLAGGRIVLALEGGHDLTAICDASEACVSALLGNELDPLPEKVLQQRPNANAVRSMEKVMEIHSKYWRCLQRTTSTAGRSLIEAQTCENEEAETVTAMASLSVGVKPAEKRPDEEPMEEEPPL
Put plainly: HDAC inhibitory activity in vitro (coumarin-labeled acetylated histone peptide), HDAC4. The format is biochemical.

Data set [5] concerns normal human lung cells (TIG-3).
Data set [6] deals with tubulin deacetylase. The data set is described as follows: Tubulin and histone acetylation level in HeLa cells by western blotting. Format: cell-based, human. To be noted: six hours, anti-acetylated lysine antibody, FIG. 4. The method, then: Tubulin and histone acetylation levels were measured by: (a) reacting a test compound with HeLa cells; and (b) confirming the tubulin and histone acetylation level by western blotting using anti-acetylated lysine antibodies. Specifically, human uterine cancer cells (HeLa) were cultured in a DMEM medium supplemented with 10% FBS at 37° C. in the presence of 5% carbon dioxide in a steam-saturated incubator. Two ml of the cells at a density of 15,000 cells/ml were plated onto a 6-well plate and cultured for 18 hours. Test compound solution was added to each culture and successively cultured for another six hours. The cells were washed with PBS, suspended in a lysis buffer (50 mM Tris-HCl (pH7.5), 120 mM NaCl, 5 mM EDTA, 0.5% Nonidet P-40), and then sonicated. The supernatant was collected by centrifugation, mixed with SDS bufer, and left at 100° C. for five minutes. The resulting sample was subjected to electroplioresis on a 15% SDS gel and transferred to a membrane film. This was treated with primary antibody “AKL5C1” (Japan Energy), and secondary antibody “anti-mouse” (LIFE SCIENCE), and then acetylation bands were detected by ECL (amersham pharmacia biotech) (FIG. 4).
A general note: In western blotting, separated proteins are transferred to a membrane and probed.

For data set [7] the following is noted: amide bond, 12-membered ring, HATU/DIEA, DMF, 25.0 °C.
Data set [8] has as its target T3, human HDAC1 (Homo sapiens, UniProt Q13547).
T3 construct: FLAG; made in house; host or cells: 293T cells, transient transfection; anti-FLAG immunoprecipitation and FLAG peptide elution
Put plainly: HDAC inhibitory activity in vitro (coumarin-labeled acetylated histone peptide), HDAC1. Format: biochemical. Particulars: Table 1; 37° C., 30 minutes; read-out: IC50 (μM) HDAC1.

Where [9] appears, read: read-out: IC50 (nM) TIG-3, 48 hours, XTT.
[10] abbreviates: Table 1, 37° C., 30 minutes, read-out: IC50 (μM) HDAC6.

T3 sequence (Q13547 whole entry): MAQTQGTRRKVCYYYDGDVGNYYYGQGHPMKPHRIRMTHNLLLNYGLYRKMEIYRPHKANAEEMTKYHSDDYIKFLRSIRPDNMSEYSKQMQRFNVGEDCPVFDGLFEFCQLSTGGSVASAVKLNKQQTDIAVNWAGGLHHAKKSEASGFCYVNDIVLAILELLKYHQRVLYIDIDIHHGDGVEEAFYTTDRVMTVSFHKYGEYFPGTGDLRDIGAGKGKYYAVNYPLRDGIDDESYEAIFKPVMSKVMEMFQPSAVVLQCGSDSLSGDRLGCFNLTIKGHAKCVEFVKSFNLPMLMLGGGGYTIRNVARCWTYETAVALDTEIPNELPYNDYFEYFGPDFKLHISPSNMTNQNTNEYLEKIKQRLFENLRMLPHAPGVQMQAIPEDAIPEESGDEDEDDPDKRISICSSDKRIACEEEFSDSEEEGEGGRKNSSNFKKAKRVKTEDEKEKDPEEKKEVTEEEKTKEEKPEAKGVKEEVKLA

With `CC[C@H](C)[C@@H]1NC(=O)[C@@H](Cc2ccc(OC)cc2)NC(=O)[C@H](CCCCCC(=O)C(F)(F)C(F)(F)F)NC(=O)[C@H]2CCCN2C1=O` [Pfek, cyclo(-L-Pfe-D-Tyr(Me)-L-Ile-D-Pro-)], the EC50 in data set [1] is over 100000 nM. For the same compound, the IC50 in data set [2] came out at 5.72 µM; in data set [3] it was 616 nM; in data set [4], 1.22 µM; in data set [5] (setting [9]), 13400 nM.

Take `CC(/C=C/C(=O)NO)=C\[C@@H](C)C(=O)c1ccc(N(C)C)cc1` [TSA, Trichostatin A, reference compound]: the EC50 in data set [1] is 770 nM. The figures for the IC50 in data set [3] and in data set [5] (setting [9]) were 12.3 nM and 151 nM, respectively.

`CC[C@H](C)[C@@H]1NC(=O)[C@@H](Cc2ccc(OC)cc2)NC(=O)[C@H](CCCCCC(=O)C(F)(F)F)NC(=O)[C@H]2CCCN2C1=O` [Tfk, cyclo(-L-Tfm-D-Tyr(Me)-L-Ile-D-Pro-)] came in with an EC50 in data set [1] of 3090 nM. In addition, the figures for the IC50 in data set [2] (setting [10]), in data set [3] and in data set [5] (48 h) were 1.44 µM, 8.8 nM and 87.1 nM, respectively. The “tubulin acetylation (tubulin deacetylase inhibition in the cells)” value in data set [6] is “induced high level of tubulin acetylation”.

`CC[C@H](C)[C@@H]1NC(=O)[C@@H](Cc2ccc(OC)cc2)NC(=O)[C@H](CCCCSCC(=O)C(F)(F)F)NC(=O)[C@H]2CCCN2C1=O` [Mtfk, cyclo(-L-Am6(Tfacet)-D-Tyr(Me)-L-Ile-D-Pro-)] returned an EC50 in data set [1] of 6640 nM. Besides, the IC50 in data set [2] (setting [10]) was found to be 0.95 µM; in data set [3], 52.5 nM; in data set [5] (48 h), 468 nM.

Compound `CC[C@H](C)[C@@H]1NC(=O)[C@@H](Cc2ccc(OC)cc2)NC(=O)[C@H](CCCCN(C=O)OCc2ccccc2)NC(=O)[C@@H]2CCCCN2C1=O` [cyclo(-L-Lys(For, OBzl)-D-Tyr(Me)-L-Ile-L-Pip-)] had a ring closure, isolated yield in data set [7] (from H-dTyr(Me)-Ile-Pip-Lys(For,OBzl)-OH?, 0.4 mM) of 24%.

Take `CC[C@H](C)[C@@H]1NC(=O)[C@@H](Cc2ccc(OC)cc2)NC(=O)[C@H](Cc2ccc(N)cc2)NC(=O)[C@H]2CCCN2C1=O` [Aph, cyclo(-L-Aph-D-Tyr(Me)-L-Ile-D-Pro-)] (cyclo(I[dP][Phe(4-NH2)][dY](Me))): the half-maximal effective concentration (EC50) in data set [1] was over 100000 nM. Moreover, the IC50 in data set [2] (setting [10]) is over 500 µM; in data set [3] it was over 50000 nM; in data set [4] (Table 1, 37° C., 30 minutes, read-out: IC50 (μM) HDAC4), over 500 µM; in data set [5] (48 h), over 50000 nM; in data set [8], over 500 µM.

The compound `CC[C@H](C)[C@@H]1NC(=O)[C@@H](Cc2ccc(OC)cc2)NC(=O)[C@H](CCCCCN(C=O)OCc2ccccc2)NC(=O)[C@H]2CCCCN2C1=O` [cyclo(-L-Hly(For, OBzl)-D-Tyr(Me)-L-Ile-D-Pip-)] showed a ring closure, isolated yield in data set [7] (from H-dTyr(Me)-Ile-dPip-Hly(For,OBzl)-OH?, 0.39 mM) of 28%.

Take `CC[C@H](C)[C@@H]1NC(=O)[C@@H](Cc2ccc(OC)cc2)NC(=O)[C@H](CCCCCN(C=O)OCc2ccccc2)NC(=O)[C@H]2CCCN2C1=O` [cyclo(-L-Hly(For, OBzl)-D-Tyr(Me)-L-Ile-D-Pro-)]: in data set [7] (from H-dTyr(Me)-Ile-dPro-Hly(For,OBzl)-OH, 0.96 mM), the ring closure, isolated yield stood at 66%.

Compound `CC[C@H](C)[C@@H]1NC(=O)[C@@H](Cc2ccc(OC)cc2)NC(=O)[C@H](CCCCCN(C=O)OCc2ccccc2)NC(=O)[C@@H]2CCCN2C1=O` [cyclo(-L-Hly(For, OBzl)-D-Tyr(Me)-L-Ile-L-Pro-)] yielded a ring closure, isolated yield in data set [7] (from H-dTyr(Me)-Ile-Pro-Hly(For,OBzl)-OH, 0.68 mM) of 44%.

Compound `CC[C@H](C)[C@@H]1NC(=O)[C@@H](Cc2ccc(OC)cc2)NC(=O)[C@H](CCCCCN(C=O)OCc2ccccc2)NC(=O)[C@@H]2CCCCN2C1=O` [cyclo(-L-Hly(For, OBzl)-D-Tyr(Me)-L-Ile-L-Pip-)] displayed a ring closure, isolated yield in data set [7] (from H-dTyr(Me)-Ile-Pip-Hly(For,OBzl)-OH?, 0.39 mM) of 28%.
